# Data as given in ChEMBL document CHEMBL1143711, “Design, synthesis, and evaluation of potent, structurally novel peroxisome proliferator-activated receptor (PPAR) delta-selective agonists” (Bioorg Med Chem, 2007).
# Key:
# [1] = molecular target: T1, Peroxisome proliferator-activated receptor gamma (Homo sapiens, UniProt P37231); format: cell-based, HEK293
# T1 sequence (P37231 whole entry): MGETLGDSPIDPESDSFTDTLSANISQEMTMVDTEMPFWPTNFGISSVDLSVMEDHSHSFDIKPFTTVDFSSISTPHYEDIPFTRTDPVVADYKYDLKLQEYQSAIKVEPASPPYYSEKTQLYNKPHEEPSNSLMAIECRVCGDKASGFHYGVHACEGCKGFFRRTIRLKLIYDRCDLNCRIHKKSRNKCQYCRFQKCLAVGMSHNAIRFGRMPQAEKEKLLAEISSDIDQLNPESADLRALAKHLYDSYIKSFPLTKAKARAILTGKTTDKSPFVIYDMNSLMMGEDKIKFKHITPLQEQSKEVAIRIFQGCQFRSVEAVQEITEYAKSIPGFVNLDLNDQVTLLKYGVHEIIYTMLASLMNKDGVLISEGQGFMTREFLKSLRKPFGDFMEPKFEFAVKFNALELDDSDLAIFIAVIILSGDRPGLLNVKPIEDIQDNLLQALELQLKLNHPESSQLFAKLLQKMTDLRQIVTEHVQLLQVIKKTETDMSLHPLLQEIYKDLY
# [2] = molecular target: T2, Peroxisome proliferator-activated receptor delta (Homo sapiens, UniProt Q03181)
# T2 sequence (Q03181 whole entry): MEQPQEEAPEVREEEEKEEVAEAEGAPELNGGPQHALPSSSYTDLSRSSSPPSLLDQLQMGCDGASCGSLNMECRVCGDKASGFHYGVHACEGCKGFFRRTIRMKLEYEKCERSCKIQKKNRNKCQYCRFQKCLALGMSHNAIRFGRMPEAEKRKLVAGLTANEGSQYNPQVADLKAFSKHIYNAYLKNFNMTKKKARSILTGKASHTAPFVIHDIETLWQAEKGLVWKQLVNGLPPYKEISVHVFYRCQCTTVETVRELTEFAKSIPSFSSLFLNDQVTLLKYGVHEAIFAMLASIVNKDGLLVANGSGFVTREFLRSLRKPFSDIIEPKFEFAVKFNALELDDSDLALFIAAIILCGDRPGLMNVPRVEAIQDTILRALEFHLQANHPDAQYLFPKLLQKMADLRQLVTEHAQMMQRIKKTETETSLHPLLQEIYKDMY
# [3] = molecular target: T3, Peroxisome proliferator-activated receptor alpha (Homo sapiens, UniProt Q07869); experiment: Effect on PPARalpha transactivation activity in HEK293 cells; format: cell-based
# T3 sequence (Q07869 whole entry): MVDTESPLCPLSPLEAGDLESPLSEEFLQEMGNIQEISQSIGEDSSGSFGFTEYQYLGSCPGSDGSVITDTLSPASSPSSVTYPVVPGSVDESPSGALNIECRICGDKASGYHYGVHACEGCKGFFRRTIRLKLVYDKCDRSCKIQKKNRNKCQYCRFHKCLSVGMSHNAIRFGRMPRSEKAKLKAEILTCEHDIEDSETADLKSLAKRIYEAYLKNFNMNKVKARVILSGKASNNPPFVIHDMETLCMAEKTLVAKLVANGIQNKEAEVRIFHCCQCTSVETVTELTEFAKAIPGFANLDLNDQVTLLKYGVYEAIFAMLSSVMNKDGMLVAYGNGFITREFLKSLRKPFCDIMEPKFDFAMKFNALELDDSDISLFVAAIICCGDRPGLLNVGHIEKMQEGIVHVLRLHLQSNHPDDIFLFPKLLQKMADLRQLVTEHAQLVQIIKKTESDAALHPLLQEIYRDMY
Compound,EC50 [1],EC50 [2],EC50 [3]
COc1ccc(CC(C)C(=O)O)cc1CNC(=O)c1ccc(C(F)(F)F)cc1 (stereo not given),> 10 µM,–,–
CCCCOc1ccc(C[C@@H](CC)C(=O)O)cc1CNC(=O)c1ccc(C(F)(F)F)cc1F,7 µM,0.0083 µM,–
CCC(Cc1ccc(OCc2ccccc2)c(CNC(=O)c2ccc(C(F)(F)F)cc2)c1)C(=O)O (stereo not given),–,–,> 10 µM
COc1ccc(CCC(=O)O)cc1CNC(=O)c1ccc(C(F)(F)F)cc1,> 10 µM,–,–
